Assay results: patent US8741659B2, “Composition for measuring the binding affinity between nucleic acid and test substance, and use thereof” (Osaka University, priority 2007, dated 2014)

Assays:
[1] = tested on: double strand RNA (SEQ ID NO: 1 hybridized with SEQ ID NO: 3); test: Fluorescence titration experiment using double strand RNA; format: binding; conditions: 1.0 μM compound, double strand RNA 0.0-1.0 μM
Protocol: (§1) Then, changes in fluorescence intensities were observed.
(§2) Firstly, X2S, X2S(3), X2S(4), X2S(5), X2S(2-Me), and 3,6-X2S(2) were respectively mixed with cacodylate buffer solutions (sodium cacodylate: 10 mM, pH 7.0; NaCl: 100 mM) each at 1.0 μM, so that solutions of the respective compounds were obtained.
As the double strand RNA, an RNA as in FIG. 2 having N representing no base was used. Specifically, an RNA formed by hybridization of an RNA having the base sequence shown in SEQ ID NO: 1 with an RNA having the base sequence shown in SEQ ID NO: 3 was used. The RNA was added to each of the solutions of the above compositions in steps at 0.0 μM, 0.2 μM, 0.4 μM, 0.8 μM, and 1.0 μM.
Each of the solutions to which the RNAs were added was irradiated with light, and a fluorescence intensity was measured. A device used for measuring the fluorescence intensity was the same as that used in Example 13. A variation in a slit width was set to ±3.0 nm during the excitation, and to ±3.0 nm during the measurement of fluorescence.
In each of FIGS. 25 to 30, the horizontal axis represents the fluorescence wavelength, whereas the vertical axis represents the fluorescence intensity.
FIG. 31 is a graph illustrating a relationship between a concentration of the double strand RNA added and a fluorescence intensity of each compound. […]

RRE = test: Fluorescence titration / evaluation of binding with RRE; parameters: species or system HIV-1; conditions: 1.0 μM compound; for reduction of fluorescence intensity (residual fluorescence intensity) on binding RRE: RRE 0.0-1.0 μM; for difference in quenching efficiency between RRE and double strand RNA: FIGS. 41 and 42
Protocol: In this Example, binding between RRE and X2S was evaluated by a method identical to the method in Example 2.
The […] of RRE is shown in SEQ ID NO: 8. […] RRE was purchased from Hokkaido System Science Co., Ltd.
Firstly, the X2S solution obtained in Example 1 was diluted with a cacodylate buffer solution (sodium cacodylate: 10 mM, pH 7.0; NaCl: 100 mM), so that a concentration of X2S became 2 μM. To the 2-μM X2S solution thus obtained, RRE was added in steps at 0 μM, 1 μM, 2 μM, 3 μM, 4 μM, 5 μM, 6 μM, and 8 μM. Further, a fluorescence intensity of the 2-μM X2S solution was measured at each concentration. The fluorescence intensity was measured in the same manner as in Example 2.
FIG. 7 is a view illustrating a result of evaluation of binding between X2S and RRE. In FIG. 7, the horizontal axis represents the fluorescence wavelength, whereas the vertical axis represents the fluorescence intensity. […] Other figures include such arrows for results of measurements of fluorescence intensities.
FIG. 8 is a view plotting the fluorescence intensities at a measured wavelength of 453 nm shown in the result illustrated in FIG. 7. The horizontal axis represents the concentration of RRE, whereas the vertical axis represents the fluorescence intensity.
as §1
as §2, with “obtained. RRE used in this Example was the same as that used in Example 4. RRE was added to each of the solutions of the respective compounds in steps at 0.0 μM, 0.2 μM, 0.4 μM, 0.8 μM, and 1.0 μM.” for “obtained.”
Each of the solutions to which RRE was added was irradiated with light, and a fluorescence intensity was measured. A device used for measuring the fluorescence intensity was the same as that used in Example 13. A variation in a slit width was also the same as that in Example 14.
FIG. 39 is a graph illustrating a relationship between a concentration of RRE added and a fluorescence intensity of each compound. Further, FIG. 39 is also a view plotting the fluorescence intensities of the respective fluorescence peaks shown in the results illustrated in FIGS. 33 to 38. FIG. 40 is a view plotting residual fluorescence intensities (%) which were obtained based on the results shown in FIGS. 33 to 38, assuming that the fluorescence intensities of the respective fluorescence peaks observed at a concentration of 0.0 μM of RRE were 100%. In each of FIGS. 39 and 40, the horizontal axis represents the concentration of the RNA. In FIG. 39, the vertical axis represents the fluorescence intensity. In FIG. 40, the vertical axis represents the residual fluorescence intensity (%).
FIG. 41 is a view plotting values obtained by dividing (i) the residual fluorescence intensities (%) obtained in the case involving use of the double strand RNA by (ii) the residual fluorescence intensities (%) obtained in the case involving use of RRE. That is, FIG. 41 is a view plotting values obtained by dividing (i) the residual fluorescence intensity (%) shown in FIG. 32 by (ii) the residual fluorescence intensities (%) shown in FIG. 40. FIG. 42 is a view plotting values obtained by subtracting (i) the residual fluorescence intensities (%) obtained in the case involving use of RRE from (ii) the residual fluorescence intensities (%) obtained in the case involving use of the double strand RNA. That is, FIG. 42 is a view plotting values obtained by subtracting (i) the residual fluorescence intensities (%) shown in FIG. 40 from (ii) the residual fluorescence intensities (%) shown in FIG. 32.
In this Example, 1-Pyrenemethanamide, hydrochloride was caused to bind to a double strand RNA or RRE. Then, a change in a fluorescence intensity was observed. […]

SMILES	reduction of fluorescence intensity (residual fluorescence intensity) on binding double strand RNA [1]	reduction of fluorescence intensity (residual fluorescence intensity) on binding RRE (RRE)	difference in quenching efficiency between RRE and double strand RNA (RRE)
CC(N)COc1ccc2oc3ccc(OCC(C)N)cc3c(=O)c2c1 (stereo not drawn) [X2S(3), 2,7-bis(2-aminopropoxy)xanthen-9-one]	particularly high reduction rates	particularly high reduction rates	greatest
CCC(N)COc1ccc2oc3ccc(OCC(N)CC)cc3c(=O)c2c1 (stereo not drawn) [X2S(4), 2,7-bis(2-aminobutoxy)xanthen-9-one]	particularly high reduction rates	particularly high reduction rates	greatest
